BindingDB's records for doi:10.1021/ml500507v (University of Cambridge, 2015)

Experiments:
[1] = biological target: T1, 5-hydroxytryptamine receptor 2C (Homo sapiens, UniProt P28335); assay: Inhibition of Cy3B conjugated serotonin analogue binding to human recombinant 5-HT2C receptor expressed in Swiss mouse 3T3 cell membranes after 60 mins by fluorescence polarization assay
T1 sequence (P28335 whole entry): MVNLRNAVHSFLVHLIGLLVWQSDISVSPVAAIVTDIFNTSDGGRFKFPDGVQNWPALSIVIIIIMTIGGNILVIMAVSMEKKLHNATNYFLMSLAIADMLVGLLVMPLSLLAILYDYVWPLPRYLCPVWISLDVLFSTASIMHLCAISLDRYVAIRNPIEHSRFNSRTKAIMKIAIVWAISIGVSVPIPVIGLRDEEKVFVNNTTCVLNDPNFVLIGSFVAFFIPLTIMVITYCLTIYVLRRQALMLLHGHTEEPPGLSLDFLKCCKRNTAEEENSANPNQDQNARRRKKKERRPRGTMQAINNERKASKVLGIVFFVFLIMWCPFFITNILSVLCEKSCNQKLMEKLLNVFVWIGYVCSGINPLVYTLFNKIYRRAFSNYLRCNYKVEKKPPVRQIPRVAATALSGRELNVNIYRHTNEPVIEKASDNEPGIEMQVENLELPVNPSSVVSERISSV

[2] = biological target: T1, 5-hydroxytryptamine receptor 2C; assay: Agonist activity at human recombinant 5-HT2C receptor expressed in Swiss mouse 3T3 cell membranes after 30 to 40 mins by GTPgammaS recruitment assay

| Structure (SMILES) | Ki [1] [nM] | EC50 [2] [nM] |
| --- | --- | --- |
| c1ccc(CNc2nc(Cc3ccccc3)cc3c2CCNCC3)cc1 | 22 | 158 |
| c1ccc(Cc2cc3c(c(NCC4CC4)n2)CCNCC3)cc1 | 0.5 |  |
| CC(C)CNc1nc(Cc2ccccc2)cc2c1CCNCC2 | 12 | 36 |
| CCNc1nc(Cc2ccccc2)cc2c1CCNCC2 | 3 | 11 |
| CNc1nc(Cc2ccccc2)cc2c1CCNCC2 | 3 | 9 |
| CCCNc1nc(Cc2ccccc2)cc2c1CCNCC2 | 4 |  |
| CC(C)Nc1nc(Cc2ccccc2)cc2c1CCNCC2 | 13 |  |
| CN(C)c1nc(Cc2ccccc2)cc2c1CCNCC2 | 12 |  |
| c1ccc(Cc2cc3c(cn2)CCNCC3)cc1 | 35 |  |
